Source: paper PMC4154654 (PLoS Neglected Tropical Diseases, 2014)
“And” between values parts separate entries of the source, which are not always exact repeats. Equal entries are not always repeated.

Assays:
CFTR Cl− channel [1] = target: T1, CFTR Cl− channel (Homo sapiens, UniProt P13569); assay: Apical Cl− current analysis of CFTR Cl− channel activity in basolaterally permeabilized T84 cells; format: cell-based
[2] = tested on: cholera toxin (CT)-induced intestinal fluid secretion; details: mouse, in vivo; cited from earlier work
[3] = tested on: live V. cholerae-induced intestinal fluid secretion; details: mice; ref [17], [38]; cited from earlier work
T84 cell monolayers = assay: Barrier function assay (FITC-dextran flux) in T84 cell monolayers; details: 24-h treatment, 3 mM
[4] = target: T2, Na+-K+-Cl− cotransporter (NKCC1) (Homo sapiens, UniProt P55011); assay: Thallium (Tl+) influx-based fluorescent assay of NKCC1 activity in T84 cells; format: cell-based
T2 sequence (P55011 1-1212): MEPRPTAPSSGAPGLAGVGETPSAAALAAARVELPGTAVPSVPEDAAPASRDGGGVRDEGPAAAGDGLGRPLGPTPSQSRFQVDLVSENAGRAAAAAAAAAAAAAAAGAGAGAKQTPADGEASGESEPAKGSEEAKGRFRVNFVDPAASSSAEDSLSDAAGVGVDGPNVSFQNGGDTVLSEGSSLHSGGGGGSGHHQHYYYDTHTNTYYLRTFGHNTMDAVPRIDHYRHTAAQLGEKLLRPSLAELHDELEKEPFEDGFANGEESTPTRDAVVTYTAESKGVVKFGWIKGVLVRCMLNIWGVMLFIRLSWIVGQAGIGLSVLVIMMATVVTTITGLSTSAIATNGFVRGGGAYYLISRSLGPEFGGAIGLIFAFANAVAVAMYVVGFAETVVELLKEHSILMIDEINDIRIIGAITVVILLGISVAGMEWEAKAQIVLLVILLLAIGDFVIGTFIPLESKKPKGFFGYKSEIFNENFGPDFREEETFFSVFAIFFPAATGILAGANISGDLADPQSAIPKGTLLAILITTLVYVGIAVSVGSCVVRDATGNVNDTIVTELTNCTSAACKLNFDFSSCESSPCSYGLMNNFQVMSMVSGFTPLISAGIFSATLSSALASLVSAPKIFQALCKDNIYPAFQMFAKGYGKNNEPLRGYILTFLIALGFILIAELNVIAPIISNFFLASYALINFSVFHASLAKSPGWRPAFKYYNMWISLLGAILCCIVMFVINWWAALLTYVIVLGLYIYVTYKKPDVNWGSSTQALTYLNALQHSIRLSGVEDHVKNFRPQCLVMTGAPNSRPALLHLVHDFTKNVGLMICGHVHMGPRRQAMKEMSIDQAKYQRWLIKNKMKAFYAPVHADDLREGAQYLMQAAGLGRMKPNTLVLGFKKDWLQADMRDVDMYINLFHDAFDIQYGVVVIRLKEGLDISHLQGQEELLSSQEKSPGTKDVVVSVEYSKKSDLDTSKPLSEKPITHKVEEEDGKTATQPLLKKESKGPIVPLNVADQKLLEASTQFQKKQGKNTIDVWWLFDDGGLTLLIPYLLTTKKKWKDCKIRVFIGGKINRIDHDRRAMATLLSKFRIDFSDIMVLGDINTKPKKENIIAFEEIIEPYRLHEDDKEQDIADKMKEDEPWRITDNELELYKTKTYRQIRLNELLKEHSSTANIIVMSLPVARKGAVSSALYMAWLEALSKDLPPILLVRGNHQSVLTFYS

[5] = target: cAMP-activated basolateral K+ channels (KCNQ1/KCNE3) (Homo sapiens, UniProt P51787); details: T84 cells, 30 µM
[6] = tested on: forskolin-induced Cl− secretion in mouse intestinal sheets
[7] = tested on: intracellular cAMP levels in T84 cells; assay: Intracellular cAMP measurement (cAMP immunoassay) in T84 cells; format: cell-based, human; details: 200 µM, 1 h, basal and forskolin-stimulated (20 µM) conditions
Method: Intracellular cAMP levels in T84 cells were measured using cAMP immunoassays (R&D Systems, Minneapolis, Minnesota, USA). T84 cells were seeded on 24-well plates at a density of 10^6 cells/well and grown for 24 h in a humidified 5% CO2/[…] incubator at 37°C. […] Thereafter, cells were lysed with cell lysis buffer and level of intracellular cAMP was measured according to the manufacturer's instructions.
Data are expressed as means ± S.E.M. NS, non-statistical difference (n = 3).

Na+-K+ ATPase = Na+-K+ ATPase activity (ouabain-sensitive short-circuit current) in T84 cells; format: cell-based, human; details: pretreatment 200 µM
Method: After stabilization of the amphotericin B-induced rise in Isc, ouabain (1 mM) was added into the basolateral solution and the values of ouabain-sensitive current were used to represent the activity of Na^+-K^+ ATPases.
In this method, apical membrane was permeabilized by amphotericin B (250 µg/ml) and a K^+ gradient ([K^+]apical>[K^+]basolateral) was established using asymmetrical K^+ buffers in the presence of ouabain in basolateral solutions (to prevent current generated by Na^+-K^+ ATPases) (Fig. 5A, inset). The basolateral K^+ current elicited by an addition of cell-permeable cAMP (e.g. CPT-cAMP) would, therefore, reflect the activity of cAMP-activated K^+ channels located in the basolateral membrane of T84 cells (i.e. KCNQ1/KCNE3 K^+ channels). […] In this protocol, intracellular Na^+ loading by amphotericin B-induced permeabilization of apical membrane stimulated Na^+-K^+ ATPase activity, resulting in an increase in Isc (Fig. 5B, inset). […]
Na^+-K^+ ATPase activity was estimated from values of ouabain-sensitive short-circuit current, which was induced by intracellular Na^+ loading following amphotericin B (250 µg/ml)-induced apical membrane permeabilization. […] Summary of data is expressed as means of ouabain-sensitive short-circuit current ± S.E.M. (n = 6–8).

[8] = tested on: CT-induced intestinal fluid secretion; assay: Mouse closed-loop model of cholera induced by CT; format: in vivo; details: mice, 30 mg/kg intraperitoneal, CT 1 µg/loop, 4 h, loop weight/length ratio
CFTR Cl− channel [9] = target: T1, CFTR Cl− channel; assay: Apical Cl− current analysis of CFTR Cl− channel activity in Calu-3 cells; format: cell-based; details: CPT-cAMP
T84 cells = assay: MTT assay of T84 cell viability; details: 24-h exposure, 10 µM to 200 µM
[10] = tested on: inwardly rectifying Cl− channel (IRC); assay: Apical Cl− current analysis of forskolin-stimulated IRC in T84 cells
[11] = tested on: Ca2+-activated Cl− channel (CaCC); assay: Apical Cl− current analysis of ATP-stimulated CaCC in T84 cells
[12] = tested on: cholera toxin (CT)-induced Cl− secretion in T84 cells; assay: cells; format: cell-based; details: Homo sapiens
[13] = tested on: phosphorylated Ca2+/calmodulin-dependent protein kinase II (CaMKII); assay: Immunoblot analysis of ATP-induced CaMKII phosphorylation in T84 cells; format: cell-based, human; details: 20 min, ATP 100 µM plus diclofenac 20 µM
Method: Proteins were extracted using lysis buffers containing (pH 7.4) 1% Triton X-100, 50 mM Tris-HCl, 150 mM NaCl, 1 mM EDTA, 1 mM NaF, 1 mM Na3VO4, 1 mM PMSF and protease inhibitor (PI) cocktail. Protein concentration was determined using a Lowry method. Equal amounts of proteins were loaded on sodium dodecyl sulfate polyacrylamide gel electrophoresis and transferred to a nitrocellulose membrane. […] The secondary antibodies were horseradish peroxidase-conjugated anti-rabbit IgG antibodies. The immunoblot was visualized using a chemiluminescence detection method.

[14] = target: Ca2+-activated basolateral K+ channels (KCa3.1) (Homo sapiens, UniProt O15554); assay: Basolateral K+ current analysis of ATP-stimulated Ca2+-activated basolateral K+ channels in T84 cells; format: cell-based; details: BaCl2 5 mM, ATP 100 µM
Method: High K^+ apical solution contained (pH 7.3) 142.5 mM K-gluconate, 1.25 mM CaCl2, 0.40 mM MgSO4, 0.43 mM […], 0.35 mM Na2HPO4, 10 mM Na-HEPES and 5.6 mM glucose. In low K^+ basolateral solution, concentration of K-gluconate was reduced to 5.4 mM and 136.9 mM N-methyl-glucamine was added. Before basolateral K^+ current measurements, apical membrane of T84 cells was permeabilized by amphotericin B (250 µg/ml) and ouabain (1 mM) was added into basolateral solution to prevent current contributed by Na^+-K^+ ATPase.

[15] = tested on: V. cholerae-induced intestinal fluid secretion; assay: Mouse closed-loop model of cholera induced by V. cholerae; format: in vivo; details: mice, 30 mg/kg intraperitoneal, 10^7 CFU/loop, 12 h, loop weight/length ratio

T1 sequence (P13569 whole entry): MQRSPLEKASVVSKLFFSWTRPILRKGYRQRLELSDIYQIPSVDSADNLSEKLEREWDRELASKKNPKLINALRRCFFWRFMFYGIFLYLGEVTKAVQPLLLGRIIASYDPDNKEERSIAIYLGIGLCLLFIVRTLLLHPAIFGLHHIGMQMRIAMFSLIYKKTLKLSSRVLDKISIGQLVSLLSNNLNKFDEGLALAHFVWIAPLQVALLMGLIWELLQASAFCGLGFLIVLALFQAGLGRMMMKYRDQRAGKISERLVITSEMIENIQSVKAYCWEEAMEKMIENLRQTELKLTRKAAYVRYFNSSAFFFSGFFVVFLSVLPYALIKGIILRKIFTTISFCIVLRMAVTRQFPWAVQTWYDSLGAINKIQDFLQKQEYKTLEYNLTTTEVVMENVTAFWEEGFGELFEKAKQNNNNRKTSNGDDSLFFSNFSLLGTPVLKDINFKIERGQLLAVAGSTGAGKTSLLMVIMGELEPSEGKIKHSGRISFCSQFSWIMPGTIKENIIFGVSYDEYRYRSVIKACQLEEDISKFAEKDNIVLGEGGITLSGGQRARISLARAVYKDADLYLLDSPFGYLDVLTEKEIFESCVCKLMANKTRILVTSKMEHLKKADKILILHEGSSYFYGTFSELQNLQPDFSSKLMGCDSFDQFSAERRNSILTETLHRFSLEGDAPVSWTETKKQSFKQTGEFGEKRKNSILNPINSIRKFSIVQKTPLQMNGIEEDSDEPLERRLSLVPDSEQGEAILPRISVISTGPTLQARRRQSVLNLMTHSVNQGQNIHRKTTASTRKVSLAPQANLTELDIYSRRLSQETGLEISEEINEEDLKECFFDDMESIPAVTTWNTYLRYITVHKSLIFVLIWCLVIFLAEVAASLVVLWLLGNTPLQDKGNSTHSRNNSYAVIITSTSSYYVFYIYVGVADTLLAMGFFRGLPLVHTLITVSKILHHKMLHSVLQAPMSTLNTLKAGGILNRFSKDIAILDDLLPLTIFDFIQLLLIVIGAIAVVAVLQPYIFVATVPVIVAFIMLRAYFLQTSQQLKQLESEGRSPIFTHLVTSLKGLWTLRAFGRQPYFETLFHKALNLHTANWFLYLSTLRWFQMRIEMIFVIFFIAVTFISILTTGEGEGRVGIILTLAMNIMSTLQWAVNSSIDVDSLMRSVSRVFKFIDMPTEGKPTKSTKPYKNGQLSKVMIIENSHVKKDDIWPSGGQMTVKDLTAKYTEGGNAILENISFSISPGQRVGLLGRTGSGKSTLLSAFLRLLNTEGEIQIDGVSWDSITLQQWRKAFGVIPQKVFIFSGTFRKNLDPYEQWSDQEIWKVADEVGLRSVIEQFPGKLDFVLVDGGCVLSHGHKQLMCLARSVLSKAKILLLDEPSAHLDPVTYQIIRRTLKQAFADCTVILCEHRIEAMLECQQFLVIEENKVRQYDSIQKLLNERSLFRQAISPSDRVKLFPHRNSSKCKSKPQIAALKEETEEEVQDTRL
Ca2+-activated basolateral K+ channels (KCa3.1), sequence (O15554 whole entry): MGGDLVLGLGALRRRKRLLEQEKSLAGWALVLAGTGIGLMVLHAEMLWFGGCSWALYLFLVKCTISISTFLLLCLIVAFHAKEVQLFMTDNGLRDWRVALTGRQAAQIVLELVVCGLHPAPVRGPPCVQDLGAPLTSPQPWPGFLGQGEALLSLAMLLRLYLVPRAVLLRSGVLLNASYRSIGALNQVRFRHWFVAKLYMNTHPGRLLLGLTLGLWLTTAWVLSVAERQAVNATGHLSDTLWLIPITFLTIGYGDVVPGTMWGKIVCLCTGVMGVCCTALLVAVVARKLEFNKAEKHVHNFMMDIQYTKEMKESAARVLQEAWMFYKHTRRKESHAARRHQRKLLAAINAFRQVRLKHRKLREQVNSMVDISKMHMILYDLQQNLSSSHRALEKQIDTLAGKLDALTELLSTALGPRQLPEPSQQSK
cAMP-activated basolateral K+ channels (KCNQ1/KCNE3), sequence (Q9Y6H6 whole entry): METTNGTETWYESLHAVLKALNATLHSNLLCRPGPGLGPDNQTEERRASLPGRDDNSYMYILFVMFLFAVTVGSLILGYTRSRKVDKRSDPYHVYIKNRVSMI
cAMP-activated basolateral K+ channels (KCNQ1/KCNE3), sequence (P51787 whole entry): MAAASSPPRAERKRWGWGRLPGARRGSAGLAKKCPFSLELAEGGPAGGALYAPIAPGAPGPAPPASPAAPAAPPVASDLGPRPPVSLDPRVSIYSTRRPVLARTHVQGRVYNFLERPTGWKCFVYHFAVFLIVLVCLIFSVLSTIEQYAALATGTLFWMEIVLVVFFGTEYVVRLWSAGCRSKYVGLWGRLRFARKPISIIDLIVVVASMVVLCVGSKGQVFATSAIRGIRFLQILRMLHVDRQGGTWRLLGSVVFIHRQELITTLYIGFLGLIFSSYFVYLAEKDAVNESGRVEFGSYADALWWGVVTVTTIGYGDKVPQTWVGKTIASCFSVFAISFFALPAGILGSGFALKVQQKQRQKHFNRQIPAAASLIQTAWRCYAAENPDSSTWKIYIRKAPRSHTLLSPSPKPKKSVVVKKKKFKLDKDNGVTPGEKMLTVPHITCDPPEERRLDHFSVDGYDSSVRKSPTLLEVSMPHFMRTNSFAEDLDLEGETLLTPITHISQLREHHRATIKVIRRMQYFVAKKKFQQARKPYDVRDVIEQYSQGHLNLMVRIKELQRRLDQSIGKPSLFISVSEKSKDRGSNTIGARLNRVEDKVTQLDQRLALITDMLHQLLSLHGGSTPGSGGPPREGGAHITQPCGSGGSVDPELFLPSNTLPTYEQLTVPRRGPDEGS

Structure (SMILES): O=C(O)c1ccc(/C=C2\SC(=S)N(c3cccc(C(F)(F)F)c3)C2=O)cc1 [CFTRinh-172]
- effect on recovered apical Cl− current after washout (CFTR Cl− channel [1]; forskolin, CFTRinh-172 5 µM apical): inhibited
- reduction of cholera toxin (CT)-induced intestinal fluid secretion [2]: > 90%
- reduction of live V. cholerae-induced intestinal fluid secretion [3]: > 90%

Structure (SMILES): O=C(O)CN(CCOCCOCCN(CC(=O)O)CC(=O)O)CC(=O)O [EGTA]
- effect on FITC-dextran flux, positive control (T84 cell monolayers): markedly increased

Structure (SMILES): CCCCNc1cc(C(=O)O)cc(S(N)(=O)=O)c1Oc1ccccc1 [bumetanide]
- effect on Tl+ influx (NKCC1 activity), positive control ([4]; 100 µM): completely prevented

Structure (SMILES): Clc1ccccc1C(c1ccccc1)(c1ccccc1)n1ccnc1 [clotrimazole]
- effect on CPT-cAMP-induced basolateral K+ current [5]: markedly inhibited

Structure (SMILES): O=C(O)Cc1ccccc1Nc1c(Cl)cccc1Cl [diclofenac]
- effect on forskolin-induced Cl− secretion in mouse intestinal sheets [6]: inhibited
- effect on intracellular cAMP levels [7]: virtually no effect
- effect on ouabain-sensitive Isc (Na+-K+ ATPase activity) (Na+-K+ ATPase): no effect
- inhibition of CT-induced intestinal fluid secretion [8]: ~70%
- reversibility of inhibition of CFTR-mediated apical Cl− current (CFTR Cl− channel [1]; 20 µM, after removal from bathing solutions): reversible
- IC50 (CFTR Cl− channel [1]; CPT-cAMP 100 µM, read-out: IC50, inhibition of apical Cl− current induced by CPT-cAMP): 8.5 µM
- potency of inhibition of forskolin-induced Cl− current in the presence of IBMX (CFTR Cl− channel [1]; IBMX (PDE inhibitor) vs forskolin control): not different from that of control
- potency of inhibition of apical Cl− current after pretreatment with MK571, compound C or Na2VO3 (CFTR Cl− channel [1]; MRP4, AMPK or protein phosphatase inhibitor): did not alter the potency
- IC50 (CFTR Cl− channel [1]; apical Cl− current, regardless of the mechanisms of CFTR activation, read-out: IC50, inhibition of CFTR Cl− channel activity (summary)): ~10 µM and 8 to 10 µM
- IC50 (CFTR Cl− channel [1]; forskolin 20 µM, read-out: IC50, inhibition of apical Cl− current induced by forskolin): 8 µM
- inhibition of CFTR-mediated apical Cl− current at 100 µM (CFTR Cl− channel [1]; forskolin, CPT-cAMP or genistein, 100 µM): almost complete inhibition
- IC50 (CFTR Cl− channel [1]; genistein 20 µM, read-out: IC50, inhibition of apical Cl− current induced by genistein): 10 µM
- inhibition of CFTR-mediated apical Cl− current at 100 µM (CFTR Cl− channel [9]): near complete inhibition
- IC50 (CFTR Cl− channel [9]; 100 µM, read-out: IC50, inhibition of CFTR-mediated apical Cl− current induced by CPT-cAMP): ~10 µM
- effect on T84 cell viability (MTT) (T84 cells): did not affect
- inhibition of IRC-mediated apical Cl− current at 100 µM ([10]; 100 µM): near complete inhibition
- IC50 ([10]; read-out: IC50, inhibition of IRC-mediated apical Cl− current, CFTRinh-172 pretreatment, forskolin 20 µM): ~5 µM
- inhibition of CaCC-mediated apical Cl− current at 20 µM ([11]; 20 µM): almost complete inhibition
- IC50 ([11]; read-out: IC50, inhibition of CaCC-mediated apical Cl− current, CFTRinh-172 pretreatment, ATP 100 µM): ~1000 nM
- IC50 ([12]; T84, read-out: IC50, inhibition of cholera toxin (CT)-induced Cl− secretion): ~10 µM
- inhibition at 100 µM ([12]; T84, read-out: inhibition of CT-induced Cl− secretion at 100 µM): > 95%
- effect on ATP-induced CaMKII phosphorylation [13]: unaffected
- inhibition of basolateral K+ current induced by ATP at 200 µM [14]: near complete inhibition
- effect on Tl+ influx (NKCC1 activity) ([4]; pretreatment 200 µM): no effect
- inhibition of V. cholerae-induced intestinal fluid secretion [15]: ~70%
